Assay [1] is described as follows: Binding affinity towards Trypanosoma cruzi farnesyl pyrophosphate synthase (TcFPPS).
For assay [2], the target named is Farnesyl pyrophosphate synthase (Trypanosoma cruzi). Put plainly: Inhibition of Trypanosoma cruzi farnesyl pyrophosphate synthase.
The nature of assay [3]: Binding affinity towards Trypanosoma cruzi farnesyl pyrophosphate synthase (TcFPPS). This is another data set of the same source.
Assay [4] has as its target Farnesyl pyrophosphate synthase (Trypanosoma cruzi). Described as above.

The term Ki denotes the dissociation constant of the complex between target and ligand, obtained from inhibition or displacement. A low value points to a stronger hold on the target. Broadly, the IC50 is the concentration that gives 50% inhibition. Low values mean greater potency in that assay, high ones weaker potency in that assay.

For `CCCC(P(=O)(O)O)P(=O)(O)O` [(1-Phosphono-butyl)-phosphonic acid], the affinity in assay [1] corresponds to a Ki of 17 µM. In addition, the IC50 in assay [2] came to 150 µM.
Take `CCCCCC(P(=O)(O)O)P(=O)(O)O` [(1-Phosphono-hexyl)-phosphonic acid]: in assay [3], the affinity, expressed as Ki, was 0.47 µM. This molecule yielded an IC50 in assay [2] of 5.67 µM.
Regarding `CCCCCCCCC(P(=O)(O)O)P(=O)(O)O` [(1-Phosphono-nonyl)-phosphonic acid], half-maximal inhibition in assay [2] (IC50) was put at 4.25 µM. This molecule also displayed a Ki in assay [4] of 0.31 µM.
For `CCCCCCCC(P(=O)(O)O)P(=O)(O)O` [(1-Phosphono-octyl)-phosphonic acid], in that order: 19.7 µM and 1.88 µM.
Molecule `CCCCC(P(=O)(O)O)P(=O)(O)O` [(1-Phosphono-pentyl)-phosphonic acid] yielded a Ki in assay [1] of 0.79 µM. In assay [2], this molecule returned an IC50 of 5.71 µM.
For the molecule `CCCCCCC(P(=O)(O)O)P(=O)(O)O` [(1-Phosphono-heptyl)-phosphonic acid], the IC50 in assay [2] came out at 4.54 µM. This molecule registered a Ki in assay [4] of 0.54 µM.
In the case of `CCC(P(=O)(O)O)P(=O)(O)O` [(1-Phosphono-propyl)-phosphonic acid], the IC50 in assay [2] was above 100 µM.

These data come from BindingDB's records for doi:10.1016/s0960-894x(03)00663-2 (Universidad De Buenos Aires, 2003).
